We go through 9 compounds from patent publication US7897637B2, “Methods of using flavonoids to enhance memory” (The Salk Institute for Biological Studies, priority 2006, dated 2011).

Read-outs that look alike come from different tables or passages of the source. Where only a bound is given, the exact number is not on record here.

The test system of experiment [1] is PC12 cells. Briefly: PC12 cell differentiation assay (neurite outgrowth). The settings on record: for EC50 / Emax: Rattus norvegicus, PC-12, PC12 cells in N2 medium, 24 hours, neurites scored; for EC50: read-out: EC50 (μM), induction of PC12 cell differentiation; for Emax: read-out: Maximal Efficacy, induction of PC12 cell differentiation. It is filed as cell-based. As to the method:
Four trihydroxyflavones (THF) and three dihydroxyflavones (DHF) which lack one or two, respectively, of the hydroxyl groups found in fisetin were tested for their ability to induce the differentiation of PC12 cells. Differentiation was assessed by scoring neurite outgrowth (Sagara et al., J. Neurochem., 90:1144-1155, 2004). […]
PC12 cells in N2 medium were treated with flavonoids for 24 hours at which time the cells were scored for the presence of neurites. PC12 cells produce neurites much more rapidly when treated in N2 medium than when treated in regular growth medium (Kimura et al., J. Cell Biol., 116:777-83, 1992). For each treatment, 100 cells in each of three separate fields were counted. Cells were scored positive if one or more neurites>1 cell body diameter in length were observed.

Experiment [2] is described as follows: Trolox Equivalent Activity Concentration (ABTS decolorization assay). The settings on record: Trolox as reference. As to the method: To determine if the protection seen with the different fisetin derivatives correlated with their antioxidant properties, their Trolox Equivalent Activity Concentration (TEAC) values were determined. In this procedure, a compound is compared to Trolox, a water-soluble vitamin E analog, for its ability to reduce the radical cation of ABTS in aqueous solution. As reported previously, fisetin has a TEAC value of ˜3 (Table II). None of the derivatives had TEAC values in this range despite, in some cases, showing better protection against oxidative stress-induced death. Thus, there was no correlation with antioxidant activity as defined by TEAC value and protection in this system.
TEAC values for the flavonoids were determined according to (Re et al. Free Rad. Biol. Med., 26:1231-7, 1999) but modified for a plate reader. Briefly, 250 μl of 2,2′-azinobis(3-ethylbenzothiazoline 6-sulfonate)(ABTS) treated overnight with potassium persulfate and diluted to an OD of ˜0.7 at 734 nm was added to 2.5 μl of a flavonoid solution in ethanol. The change in absorbance due to the reduction of the ABTS radical cation was measured at 734 nm for 4 minutes. To calculate the TEAC, the gradient of the plot of the percentage inhibition of absorbance vs. concentration for the flavonoid in question is divided by the gradient of the plot for Trolox.

In the next experiment the test system is HT22 cells. Briefly: Protection of HT22 cells from oxidative glutamate toxicity (MTT assay). It is filed as cell-based, mouse. As to conditions: 24 hours; for EC50 / Emax: Mus musculus, HT22 cells, 5 mM glutamate, MTT assay; for EC50: HT-22, 24 h, read-out: EC50 (μM), protection from oxidative-stress induced death; for Emax: HT-22, read-out: Maximal Efficacy, protection from oxidative-stress induced death. The text has this: Fisetin is effective at protecting nerve cells from oxidative stress-induced death (Ishige et al., Free Radic. Biol. Med., 30:433-446, 2001). This Example illustrates the structure-activity relationship between fisetin derivatives and neuroprotection in a model of oxidative glutamate toxicity using mouse HT22 cells. This pathway of programmed cell death is initiated by the addition of glutamate to the extracellular medium. Glutamate inhibits the uptake of cystine which is required for glutathione (GSH) biosynthesis, resulting in the depletion of GSH in neurons (for review see Tan et al., Curr. Top. Med. Chem., 1:497-506, 2001). Subsequently, this decrease in cellular GSH results in the production of reactive oxygen species (ROS) by mitochondria. The ROS accumulation then causes Ca^+2 influx from the extracellular medium which leads to cell death.
HT22 cells were untreated (Ct) or treated with 10 μM fisetin, 25 μM 3,3′-DHF, 25 μM 3,4′-DHF, 2.5 μM 3′,4′-DHF, 2.5 μM 3,3′,4′-THF 25 μM 3,7,3′-THF, 25 μM 3,7,4′-THF or 10 μM 7,3′,4′-THF in the presence of 5 mM glutamate±50 μM PD98059. Twenty four (24) hours later cell survival was measured by the MTT assay.
HT22 cells were untreated (Ct) or treated with 10 μM fisetin, 25 μM 3,3′-DHF. […] Protection by all of the other flavonoids was unaffected by BSO.
Cell viability was determined by a modified version of the 3-(4,5-dimethylthiazol-2-yl)-2,5-diphenyl tetrazolium bromide (MTT) assay based on the standard procedure (Hansen et al., J. Immunol. Meth., 119:203-10, 1989). Briefly, cells were seeded onto 96-well microtiter plates at a density of 5×10^3 cells per well. The next day, the medium was replaced with DMEM supplemented with 7.5% DFCS and the cells were treated with the different flavonoids alone or in the presence of 5 mM glutamate. Twenty four hours later, the medium in each well was aspirated and replaced with fresh medium containing 2.5 μg/ml MTT. After 4 hours of incubation at 37° C., cells were solubilized with 100 μl of a solution containing 50% dimethylformamide and 20% SDS (pH 4.7). The absorbance at 570 nm was measured on the following day with a microplate reader (Molecular Devices). Results obtained from the MTT assay correlated directly with the extent of cell death as confirmed visually. Controls employing wells without cells were used to determine the effects of the agents upon the assay chemistry.

Another experiment has as its system Nrf2 and HO-1. Nature of the experiment: Nrf2 and HO-1 induction in HT22 cells (immunoblotting). It counts as cell-based, mouse. As to conditions: for increasing the levels of Nrf2 and inducing HO-1 synthesis: HT22 cells, 10-25 μM, 4 hours (Nrf2), 24 hours (HO-1). As to the method:
Since the ability to activate the ARE could be important for some of the beneficial effects of flavonoids such as fisetin, it was determined which, if any, of the fisetin derivatives could activate the ARE and induce the synthesis of downstream proteins such as HO-1. HT22 cells were untreated (control) or treated with 10 μM fisetin, 25 μM 3,3′DHF, 25 μM 3,4′-DHF, 10 μM 3′,4′-DHF, 10 μM 3,3′,4′-THF, 25 μM 3,7,3′-THF, 25 μM 3,7,4′-THF or 10 μM 7,3′,4′-THF for 4 hours. Nuclei were prepared and equal amounts of protein were analyzed by SDS-PAGE and immunoblotting with anti-Nrf-2 antibodies.
ERK activation is implicated in the induction of Nrf2 by certain stimuli in some cell types. To determine if ERK activation plays a role in the induction of Nrf2 and HO-1 by fisetin and its derivatives, cells were pretreated with PD98059 prior to the addition of the flavonoids to the cells. HT22 cells then were untreated (control) or treated for 24 hours with 10 μM fisetin, 25 μM 3,3′-DHF, 25 μM 3,4′-DHF, 10 μM 3′,4′-DHF, 10 μM 3,3′,4′-THF, 25 μM 3,7,3′-THF, 25 μM 3,7,4′-THF or 10 μM 7,3′,4′-THF. Cell lysates were prepared and equal amounts of cellular protein were analyzed by SDS-PAGE and immunoblotting with anti-HO-1 antibodies. Immunoblotting with anti-actin was used as a loading control.
For immunoblotting of HO-1, untreated and flavonoid-treated HT22 cells from the same density cultures as used for the cell death assays were washed twice in cold phosphate-buffered saline (PBS) then scraped into lysis buffer containing 50 mM HEPES, pH 7.4, 150 mM NaCl, 50 mM NaF, 1.5 mM MgC2, 1 mM EGTA, 10% glycerol, 1% Triton X-100, 10 mM sodium pyrophosphate, 1 mM Na3VO4, 1 mM phenylmethylsulfonyl fluoride (PMSF), 15 μg/ml aprotinin, 1 μg/ml pepstatin, and 5 μg/ml leupeptin. Lysates were incubated at 4° C. for 30 minutes, and then cleared by centrifugation at 14,000 rpm for 10 minutes. For immunoblotting of Nr12, nuclear extracts were prepared as described (Schreiber et al., Nuc. Acids Res., 17:6419, 1989) from untreated and flavonoid-treated cells. […] Protein concentrations were determined using the BCA protein assay (Pierce). Equal amounts of protein were solubilized in 2.5×SDS sample buffer, separated on 10% SDS polyacrylamide gels and transferred to nitrocellulose. The primary antibodies used were: anti-Nrf2 (#SC13032; 1/1000) from Santa Cruz Biotechnology (Santa Cruz, Calif.) and anti-HO-1 (#SPA-896; 1/5000) from Stressgen (Victoria, BC Canada).
For orientation: In western blotting, separated proteins are transferred to a membrane and probed.

Experiment [3] has as its system PC12 cells. The settings on record: cited from earlier work; for EC50: PC12 cells, read-out: EC50 for differentiation; for EC50 / differentiation of the cells induced at best: Sagara et al. 2004.
In a further experiment the test system is ERK1 (p44). Briefly: ERK1 (p44) phosphorylation in hippocampal slices (immunoblotting, densitometry). It counts as cell-based, rat. As to conditions: inhibitor alone (50 μM PD98059 or 10 μM U0126, 30 minutes). As to the method: (§1) Western blots panels A and B) of hippocampal slices treated with (A) 1 μM fisetin or (B) pretreated for 30 minutes with either 50 μM PD98059 (PD) or 10 μM U0126 (U) before the addition of 1 μM fisetin for 5 minutes, which blots were probed with the indicated antibodies.
(§2) Hippocampal slices in artificial cerebral spinal fluid (ACSF) were treated with either 1 μM fisetin for 5-20 minutes or pretreated for 30 minutes with either 50 μM PD98059 (PD) or 10 μM U0126 (J) before the addition of 1 μM fisetin for 5 minutes. Equal amounts of protein were analyzed by SDS-PAGE and immunoblotting with antibodies to phospho-ERK and phospho-CRFB along with antibodies to the unphosphorylated forms of the proteins. The average phosphoprotein signal from the blots was quantified by densitometry and normalized to total protein was plotted±S.D.

A further experiment deals with ERK2 (p42). Nature of the experiment: ERK2 (p42) phosphorylation in hippocampal slices (immunoblotting, densitometry). The settings on record: inhibitor alone (50 μM PD98059 or 10 μM U0126, 30 minutes). It is filed as cell-based, rat. As to the method:
as §1, §2

The subject of another experiment is CREB. Nature of the experiment: CREB phosphorylation in hippocampal slices (immunoblotting, densitometry). It is filed as cell-based, rat. As to conditions: inhibitor alone (50 μM PD98059 or 10 μM U0126, 30 minutes). As to the method: as §1, §2

Turning to `O=c1c(O)c(-c2cccc(O)c2)oc2ccccc12` [3,3′-DHF, 3,3′-dihydroxyflavone], the EC50 in the experiment with PC12 cells [1] is 10 µM; with HT22 cells it was 12 µM. In addition, the Emax is 40 to 50% with PC12 cells [1] and > 80% in the experiment on HT22 cells. Moreover, the TEAC in experiment [2] was 1.01 ± 0.01.
Regarding `O=c1c(O)c(-c2ccc(O)cc2)oc2ccccc12` [3,4′-DHF, 3,4′-dihydroxyflavone], the “increasing the levels of Nrf2 and inducing HO-1 synthesis” value in the experiment on Nrf2 and HO-1 is given as “fairly effective”. Moreover, the “ability to induce differentiation” value in the experiment on PC12 cells [1] (PC12 cells) is “slightly less efficacious and potent than fisetin”. Further, the EC50 was 20 µM in the experiment with PC12 cells [1] and 10 µM in the experiment on HT22 cells. The Emax with PC12 cells [1] is 50 to 60%; in the experiment with HT22 cells, > 70%. In addition, the TEAC in experiment [2] is 0.62 ± 0.06. Also, in the experiment with HT22 cells (5 mM glutamate + 1 mM BSO, MTT), the “effect of higher levels of BSO on protection” value was “reduced protection”.
For the compound `O=c1c(O)c(-c2cccc(O)c2)oc2cc(O)ccc12` [3,7,3′-THF, 3,3′,7-trihydroxyflavone], in the experiment with PC12 cells [1], the EC50 came to 15 µM and the Emax lay in the range of 40 to 50%. In experiment [2], the TEAC is 1.55 ± 0.34. Besides, in the experiment with HT22 cells, the EC50 worked out at 17 µM and the Emax was > 90%.
For the compound `O=c1c(O)c(-c2ccc(O)cc2)oc2cc(O)ccc12` [3,7,4′-THF, 3,4′,7-trihydroxyflavone], in the experiment on Nrf2 and HO-1, the “increasing the levels of Nrf2 and inducing HO-1 synthesis” value is listed as “fairly effective”. The “effect of inhibition of ERK activation (PD98059) on Nrf2 and HO-1 induction” value in the experiment on Nrf2 and HO-1 (PD98059 pretreatment) was “reduced”. For the same compound, in the experiment with PC12 cells [1], the EC50 amounted to 10 µM and the Emax was 70 to 80%. The TEAC in experiment [2] is 1.01 ± 0.10. Further, in the experiment with HT22 cells, the EC50 amounted to 12.5 µM and the Emax was > 90%.
As for `O=c1cc(-c2ccc(O)c(O)c2)oc2cc(O)cc(O)c12` [Iuteolin, 5,7,3′,4′-tetrahydroxyflavone], in the experiment on PC12 cells [3], the EC50 was 10 µM and the “differentiation of the cells induced at best” value (“differentiation … at best” for short) is recorded as 50%.
Turning to `N#CC(=C(/N)Sc1ccccc1N)/C(C#N)=C(\N)Sc1ccccc1N` [U0126, reference compound], the “p44 phosphoprotein signal normalized to total protein” value with ERK1 (p44) amounted to 0.13±0.06. Moreover, the “p42 phosphoprotein signal normalized to total protein” value with ERK2 (p42) is recorded as 0.30±0.05. For the same compound, the “CREB phosphoprotein signal normalized to total protein” value in the experiment on CREB is recorded as 0.71±0.31.
Consider `COc1cc(-c2oc3cc(O)cc(O)c3c(=O)c2O)ccc1O` [isorhamnetin, 3′-methoxy-3,5,7,4′-tetrahydroxyflavone], for which, in the experiment on PC12 cells [3], the 50% effective concentration (EC50) was 10 µM and the “differentiation … at best” value was 50%.
Consider `O=c1c(O)c(-c2cc(O)c(O)c(O)c2)oc2cc(O)cc(O)c12` [myricetin], for which, in the experiment with PC12 cells [3] (earlier flavonoid comparison), the “differentiation promoting activity” value is “completely ineffective”.
Regarding `O=c1c(O)c(-c2ccc(O)c(O)c2)oc2cc(O)cc(O)c12` [quercetin, 3,5,7,3′,4′-pentahydroxyflavone], in the experiment with PC12 cells [3], the EC50 was 10 µM and the “differentiation … at best” value is listed as 50%.

The term EC50 denotes the concentration needed to bring the measured effect to its halfway point.
